US9993447B2, “Systems and methods for increasing agmatine cellular uptake by oral administration” (priority 2015, dated 2018)

Tests used:
[1] = oral, with high-intensity periodized resistance training; cited from earlier work
pH of buffer media = type: physicochemical; conditions: room temperature
Excerpt: Crea-Trona® is also known as buffered creatine. During the fabrication process, AlzChem uses a double buffer from sodium carbonate and sodium bi-carbonate, both natural minerals, which creates an alkaline environment with a pH value between 8 and 12. Crea-Trona is more efficient than other types of creatine, including those with an alkaline pH-buffer (kre-alkalynes). The double buffer prevents the pH-value in the muscles from dropping rapidly during the workout. This may lead to a larger training volume and may stimulate faster recovery of the original pH-value after the workout.
To maximize the benefits of oral administration of agmatine salts according to embodiments of the present disclosure, a buffer media may be used in formulations, or a stable mono-protonated or neutral form of such agmatine salts should be administered instead. As reflected in the formulations described above according to embodiments of the present disclosure, different buffer media have been used including Crea-Trona (such as that offered by AlzChem), arginine base, as well as Effer-Soda (such as that offered by SPI Pharma). However, it should be appreciated that other buffer media, such as potassium carbonate or potassium bicarbonate, may be utilized without departing from the present disclosure. Such buffer media may elevate the pH of the formulation. […]

[2] = approximately 150 g over three days, oral; cited from earlier work
[3] = 300 mg daily for 6 weeks, young healthy trained athletes; cited from earlier work
[4] = pH of 1% agmatine salt solutions in purified water at room temperature; type: physicochemical; conditions: 1% in purified water
Excerpt: Compounds and formulations according to embodiments of the present disclosure may provide a method to increase cellular uptake of agmatine in an animal or human. It should be appreciated that agmatine uptake may increase dramatically with increasing pH, and protonation of the amino group of agmatine is dependent on pH. The guanidinium group in agmatine has a pH of about 12.5 in aqueous solution while the amino group in agmatine has a pH of about 9. At the physiological pH, agmatine may be protonated and thus, requires transporters for uptake into the cells to occur. The fraction of the molecules having a single positive charge may increase as pH increases. […] This is reflected in FIGS. 1 and 2.

[5] = Titration of 1% agmatine salt solutions with 5% aqueous arginine base; type: physicochemical; conditions: 1% solution titrated with 5% arginine base, room temperature
Method: FIG. 2 depicts a graphical representation of 1% agmatine salt solutions in a titration with an 5% aqueous arginine base solution at room temperature according to an embodiment of the present disclosure;
(§1) The pH dependence has been evaluated in acidic as well as basic conditions. […] About 15 mL of 0.1N HCl may be used to lower the pH of agmatine phosphate at around 3 while other agmatine salts, at the same concentration and in the same measuring conditions, required approximately 2-4 mL to change to an acidic pH. The same kind of behavior was observed when solutions of agmatine salts were titrated with a solution of agmatine base. About 20 mL were required to make the pH alkaline (above 8) in the case of agmatine phosphate, while other agmatine salts required approximately 2-3 mL to achieve the same pH range. Taking these observations into consideration along with the fact that better uptake of agmatine is observed at a higher pH, it should be appreciated that agmatine dihydrochloride and agmatine phosphate may be more desirable agmatine salts than agmatine sulfate for improving bioavailability of orally administered agmatine.

[6] = Titration of 1% agmatine salt solutions with aqueous 0.1N HCl; type: physicochemical; conditions: 1% solution titrated with 0.1N HCl
Method: FIG. 1 depicts a graphical representation of 1% agmatine salt solutions in a titration with an aqueous 0.1N HCl solution according to an embodiment of the present disclosure;
as §1

[7] = concentration of 1 mM; cited from earlier work
[8] = cited from earlier work
rat = rat experimental model; cited from earlier work
[9] = prior intake, trained young men; cited from earlier work

Nc1ncnc2c1ncn2[C@@H]1O[C@H](COP(=O)(O)OP(=O)(O)OP(=O)(O)O)[C@@H](O)[C@H]1O [ATP, adenosine triphosphate]
Muscle mass, strength, and power compared with placebo-matched control [1]: increases muscle mass, strength, and power

N=C(N)NCCC[C@H](N)C(=O)O [Arginine base, arginine]
pH of arginine base in solution (pH of buffer media): around 10

O=C[C@H](O)[C@H](O)[C@H](O)CO [D-ribose]
Rate of ATP replenishment over three days of rest compared to placebo sugar (maltodextrin) [2]: greater

COc1c(O)c(C)c(C/C=C(\C)CC/C=C(\C)CC/C=C(\C)CC/C=C(\C)CC/C=C(\C)CC/C=C(\C)CC/C=C(\C)CC/C=C(\C)CC/C=C(\C)CCC=C(C)C)c(O)c1OC [Ubiquinol, ubiquinol]
Maximum power output versus placebo [3]: +0.08 W/kg bw | Maximum power output versus placebo, relative change [3]: +2.5%

Cl.Cl.N=C(N)NCCCCN [agmatine dihydrochloride]
pH of 1% agmatine salt solution [4]: 6.4

N=C(N)NCCCCN.O=P(O)(O)O [agmatine phosphate]
pH of 1% agmatine salt solution [4]: 5.7 | Volume of base solution required to make the pH alkaline (above 8) [5]: About 20 mL | Volume of 0.1N HCl used to lower the pH to around 3 (acidic pH) [6]: About 15 mL

N=C(N)NCCCCN.O=S(=O)(O)O [agmatine sulfate, reference compound]
pH of 1% agmatine salt solution [4]: 4.8

N=C(N)NCCCCN [agmatine, (4-aminobutyl)guanidine]
Cytotoxic effects [7]: no cytotoxic effects | pKa value of the guanadino group [8]: 12.5 | Lethal dose (rat): 1 to 10 mg/kg

O=C([O-])O.[Na+] [sodium bicarbonate]
High-intensity intermittent exercise performance [9]: improved
